Source: patent publication US6720324B2, “Selective melanin concentrating hormone-1 (MCH1) receptor antagonists and uses thereof” (Synaptic Pharmaceutical Corporation, priority 2000, dated 2004)
Read-outs that look alike come from different tables or passages of the source.

Experiments:
human MCH1 receptor [1] = target: T1, human MCH1 receptor (Homo sapiens, UniProt Q99705); assay: Functional assay: intracellular calcium mobilization (antagonist potency Kb); format: cell-based; parameters: expressed in transfected cells; host or cells: COS-7 cells, transient, DEAE-dextran, plasmid pEXJ.HR-TL231 (ATCC 203197)
Procedure: Intracellular calcium mobilization assays for the MCH1 receptor were carried out using plasmid pEXJ.HR-TL231 (ATCC Accession No. 203197). COS-7 cells were transiently transfected with DNA encoding the MCH1 receptor utilizing the DEAE-dextran method as described above. The intracellular free calcium concentration was measured by fluorescent imaging using the calcium sensitive fluorscent dye Fluo-3. COS-7 cells expressing the human MCH1 receptor were seeded onto sterile 96 well plates, washed with Hank's balanced salt solution (HBSS), containing 20 mM HEPES, 2.5 mM probenecid, and 0.1% BSA, and loaded with the same buffer containing 3.8 μM Fluo-3 for 1 hour at 37° C. After washing with HBSS to remove the fluo-3 solution, cells were equilibrated for 10 minutes.

human MCH1 receptor [2] = target: T1, human MCH1 receptor; assay: Radioligand competition binding with [3H]Compound 10, membranes of A293 cells; conditions: Table 3, A293 cell membranes, [3H]Compound 10 as radioligand, read-out: hMCH1 * Ki
Procedure: (§1) For binding assays, pellets of transfected cells are suspended in ice-cold buffer (20 mM Tris.HCl, 5 mM EDTA, pH 7.4) and homogenized by sonication for 7 sec. The cell lysates are centrifuged at 200×g for 5 min at 4° C. The supernatants are then centrifuged at 40,000×g for 20 min at 4° C. The resulting pellets are washed once in the homogenization buffer and suspended in binding buffer (see methods for radioligand binding). Protein concentrations are determined by the method of Bradford (1976) using bovine serum albumin as the standard. Binding assays are usually performed immediately, however it is possible to prepare membranes in batch and store frozen in liquid nitrogen for future use.
Radioligand binding assays for the MCH1 receptor were carried out using plasmid pEXJ.HR-TL231 (ATCC Accession No. 203197). Plasmid pEXJ.HR-TL231 comprises the regulatory elements necessary for expression of DNA in a mammalian cell operatively linked to DNA encoding the human MCH1 receptor so as to permit expression thereof. Plasmid pEXJ.HR-TL231 was deposited on Sep. 17, 1998, with the American Type Culture Collection (ATCC), 12301 Parklawn Drive, Rockville, Md. 20852, U.S.A. under the provisions of the Budapest Treaty for the International Recognition of the Deposit of Microorganisms for the Purposes of Patent Procedure and was accorded ATCC Accession No. 203197. […]

rat 5-HT2C receptor = target: T2, rat 5-HT2C receptor (Rattus norvegicus, UniProt P08909); assay: Radioligand binding assay, cloned receptor; conditions: read-out: r5HT2C Ki
T2 construct: expressed in transfected cells
T2 sequence (P08909 33-460): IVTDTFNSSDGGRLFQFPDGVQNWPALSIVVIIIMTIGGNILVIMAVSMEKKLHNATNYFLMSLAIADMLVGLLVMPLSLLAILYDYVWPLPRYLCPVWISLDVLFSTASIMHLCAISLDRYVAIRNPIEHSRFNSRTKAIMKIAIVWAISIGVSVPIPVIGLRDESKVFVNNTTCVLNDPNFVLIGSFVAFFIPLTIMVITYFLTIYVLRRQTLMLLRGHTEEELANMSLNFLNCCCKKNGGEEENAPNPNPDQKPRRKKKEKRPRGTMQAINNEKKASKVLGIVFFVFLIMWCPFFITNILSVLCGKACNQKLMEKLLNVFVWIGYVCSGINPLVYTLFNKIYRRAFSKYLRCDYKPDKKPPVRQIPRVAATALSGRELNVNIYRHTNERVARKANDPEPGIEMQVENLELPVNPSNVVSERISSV
Procedure: as §1
(§2) The methods to obtain the cDNA of the human NPY1, NPY5, GALR1, GALR2, and GALR3 and rat 5-HT2C receptors, express said receptors in heterologous systems, and carry out assays to determine binding affinity are described in the following publications and above: human NPY1 (Larhammar et al., 1992), human NPY5 (U.S. Pat. No. 5,602,024, the disclosure of which is hereby incorporated by reference in its entirety into this application), human Gal1 (Habert-Ortoli et al., 1994), human Gal2 (Smith et al., 1997), human Gal3 (Smith et al., 1998), and rat 5-HT2C (Julius et al., 1988).

human GALR3 = target: T3, human GALR3 (Homo sapiens, UniProt O60755); assay: Radioligand binding assay, cloned receptor; conditions: read-out: hGALR3 Ki
T3 construct: expressed in transfected cells
T3 sequence (O60755 1-368): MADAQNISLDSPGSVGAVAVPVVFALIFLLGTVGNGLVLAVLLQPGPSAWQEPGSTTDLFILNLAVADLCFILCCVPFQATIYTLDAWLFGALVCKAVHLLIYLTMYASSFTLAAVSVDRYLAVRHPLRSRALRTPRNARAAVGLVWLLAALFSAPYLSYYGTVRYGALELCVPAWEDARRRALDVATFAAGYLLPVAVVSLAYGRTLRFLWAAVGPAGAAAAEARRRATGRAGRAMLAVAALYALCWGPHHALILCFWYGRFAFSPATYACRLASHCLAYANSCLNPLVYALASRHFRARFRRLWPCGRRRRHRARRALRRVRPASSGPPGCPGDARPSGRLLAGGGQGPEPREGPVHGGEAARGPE
Procedure: as §1, §2

T1 sequence (Q99705 whole entry): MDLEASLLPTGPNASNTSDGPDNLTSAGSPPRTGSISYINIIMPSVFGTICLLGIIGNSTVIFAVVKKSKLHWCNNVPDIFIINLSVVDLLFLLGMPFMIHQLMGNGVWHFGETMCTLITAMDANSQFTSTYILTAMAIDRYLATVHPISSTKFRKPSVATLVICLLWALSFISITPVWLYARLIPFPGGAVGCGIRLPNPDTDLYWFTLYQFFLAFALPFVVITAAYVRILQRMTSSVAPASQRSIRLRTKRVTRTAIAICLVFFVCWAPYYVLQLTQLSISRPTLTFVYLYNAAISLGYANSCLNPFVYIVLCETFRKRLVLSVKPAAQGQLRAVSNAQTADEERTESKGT

**Q.** What does the source list for “2-(3,4-DIFLUOROPHENYL)4,5-DIHYDROIMIDAZOLE-1-CARBOXYLIC ACID {3-[4-PHENYL-4-(4-BROMO-5-METHYLTHIOPNEN-2-YL)]PROPYL}-AMIDE [Example 19]”?
**A.** Kb (human MCH1 receptor [1]; Table 1, cloned human MCH1 receptor, functional assay, read-out: Kb (nM) hMCH1): 7 nM; Kb (human MCH1 receptor [1]; Table 2, antagonist potency at the human MCH1 receptor, read-out: hMCH1 Kb): 7 nM; Kb (human MCH1 receptor [1]; Table 3, antagonist potency at the human MCH1 receptor, read-out: hMCH1 Kb): 7 nM; Ki (human MCH1 receptor [2]): 3 nM; Ki (rat 5-HT2C receptor; Table 2): 11700 nM; Ki (rat 5-HT2C receptor; Table 3): 11700 nM; Ki (human GALR3; Table 2): > 50000 nM; Ki (human GALR3; Table 3): > 50000 nM
